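How tested: cells in 96-well plates exposed to compound for 48 hours at five concentrations. Here, GI50 denotes the concentration required for 50% inhibition of growth.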 Activity calls are given as the source filed them. Cut-off read from the data, not from the text of the source: active = GI50 up to about 1.1 µM and inactive = higher.
Key:
Experiment in all cases: NCI tumour cell line growth inhibition, 48 h
[1] = test system: 786-0
[2] = test system: A498
[3] = test system: A549
[4] = test system: ACHN
[5] = test system: COLO 205
[6] = test system: DLD-1
[7] = test system: DMS-114
[8] = test system: DMS-273
[9] = test system: EKVX
[10] = test system: HCC 2998
[11] = test system: HCT-116
[12] = test system: HCT-15
[13] = test system: HOP-18
[14] = test system: HOP-62
[15] = test system: HOP-92
[16] = test system: HT-29
[17] = test system: IGROV-1
[18] = test system: K562
[19] = test system: KM-20L2
[20] = test system: KM12
[21] = test system: LOX IMVI
[22] = test system: LXFL 529
[23] = test system: M14
[24] = test system: M19-MEL
[25] = test system: Malme-3M
[26] = test system: NCI-H226
[27] = test system: NCI-H23
[28] = test system: NCI-H460
[29] = test system: NCI-H522
[30] = test system: OVCAR-3
[31] = test system: OVCAR-4
[32] = test system: OVCAR-5
[33] = test system: OVCAR-8
[34] = test system: RXF 393
[35] = test system: SF-268
[36] = test system: SF-295
[37] = test system: SF-539
[38] = test system: SK-MEL-28
[39] = test system: SK-MEL-2
[40] = test system: SK-MEL-5
[41] = test system: SK-OV-3
[42] = test system: SN12C
[43] = test system: SNB-19
[44] = test system: SNB-75
[45] = test system: SNB-78
[46] = test system: SW-620
[47] = test system: TK-10
[48] = test system: U-251
[49] = test system: UACC-257
[50] = test system: UACC-62
[51] = test system: UO-31
[52] = test system: XF498

`COC(=O)CCC(NC(=S)N/N=C(\C)c1cccs1)C(=O)OC` (configuration not stated) was tested, and the GI50 [1] was > 100 µM (inactive), the GI50 [2] was > 100 µM (inactive) and the GI50 [3] was > 100 µM (inactive). For the same compound, the GI50 [4] was > 100 µM (inactive), the GI50 [5] was > 100 µM (inactive) and the GI50 [6] was > 100 µM (inactive). For the same compound, the GI50 [7] was > 100 µM (inactive), the GI50 [8] was > 100 µM (inactive) and the GI50 [9] was > 100 µM (inactive). For the same compound, the GI50 [10] was > 100 µM (inactive), the GI50 [11] was > 100 µM (inactive) and the GI50 [12] was > 100 µM. For the same compound, the GI50 [13] was > 100 µM (inactive), the GI50 [14] was > 100 µM (inactive) and the GI50 [15] was > 100 µM (inactive). For the same compound, the GI50 [16] was > 100 µM (inactive), the GI50 [17] was > 100 µM (inactive) and the GI50 [18] was > 100 µM (inactive). For the same compound, the GI50 [19] was > 100 µM (inactive), the GI50 [20] was > 100 µM (inactive) and the GI50 [21] was > 100 µM (inactive). The GI50 [22] was > 100 µM (inactive), the GI50 [23] was > 100 µM (inactive) and the GI50 [24] was > 100 µM (inactive). The GI50 [25] was > 100 µM (inactive), the GI50 [26] was > 100 µM (inactive) and the GI50 [27] was > 100 µM (inactive). For the same compound, the GI50 [28] was > 100 µM (inactive), the GI50 [29] was > 100 µM (inactive) and the GI50 [30] was > 100 µM (inactive). For the same compound, the GI50 [31] was > 100 µM (inactive), the GI50 [32] was > 100 µM (inactive) and the GI50 [33] was > 100 µM (inactive). The GI50 [34] was > 100 µM (inactive), the GI50 [35] was > 100 µM (inactive) and the GI50 [36] was > 100 µM (inactive). The GI50 [37] was > 100 µM (inactive), the GI50 [38] was > 100 µM (inactive) and the GI50 [39] was > 100 µM (inactive). For the same compound, the GI50 [40] was > 100 µM (inactive), the GI50 [41] was > 100 µM (inactive) and the GI50 [42] was > 100 µM (inactive). The GI50 [43] was > 100 µM (inactive), the GI50 [44] was > 100 µM (inactive) and the GI50 [45] was > 100 µM (inactive). For the same compound, the GI50 [46] was > 100 µM (inactive), the GI50 [47] was > 100 µM (inactive) and the GI50 [48] was > 100 µM (inactive). The GI50 [49] was > 100 µM (inactive), the GI50 [50] was > 100 µM (inactive) and the GI50 [51] was > 100 µM (inactive). For the same compound, the GI50 [52] was > 100 µM (inactive).

Reference: ChEMBL document CHEMBL1201862, “PubChem BioAssay data set” (2004)
